This is an account of results in ChEMBL document CHEMBL3886411, “Heterocyclic derivative and pharmaceutical composition comprising the same” (2015).

The structures appear in SMILES notation. pIC50: −log10 of the molar value.

In the assay the target is T1, P2X purinoceptor 3 (Homo sapiens, UniProt P56373).
T1 sequence (P56373 whole entry): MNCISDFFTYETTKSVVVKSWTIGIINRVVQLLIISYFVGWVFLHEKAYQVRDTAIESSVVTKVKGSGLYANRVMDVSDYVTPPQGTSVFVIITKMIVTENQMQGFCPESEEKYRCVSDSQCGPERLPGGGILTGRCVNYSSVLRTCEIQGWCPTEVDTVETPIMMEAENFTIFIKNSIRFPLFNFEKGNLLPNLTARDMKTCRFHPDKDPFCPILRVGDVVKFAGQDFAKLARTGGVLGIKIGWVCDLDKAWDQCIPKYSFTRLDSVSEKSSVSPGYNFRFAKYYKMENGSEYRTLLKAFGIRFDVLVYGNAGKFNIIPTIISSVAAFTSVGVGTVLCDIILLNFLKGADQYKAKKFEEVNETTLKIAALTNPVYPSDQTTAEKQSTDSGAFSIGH
Nature of the assay: Inhibition Assay: Stably expressing cell line (C6BU-1 cell transfected with human P2X3 receptor gene (GenBank accession number Y07683) was used. The cells were seeded in a 96-well microtiter plate at a concentration of 8000 cells/well and cultured in the medium (8.3% fetal bovine serum, 8.3% horse serum, 1% antibiotic and antifungal in DMEM) for one day at 37° C. under 5% carbon dioxide atmosphere. The medium was replaced with 4 μM Fluo-3-AM solution (20 mM HEPES, 137 mM NaCl, 2.7 mM KCl, 0.9 in M MgCl2, 5.0 mM CaCl2, 5.6 D-glucose, 2.5 mM probenecid, 1.0% BSA, and 0.08% Pluronic F-127, pH 7.5) and incubated at 37° C. under 5% dioxide carbon atmosphere for one hour. The plate was washed with washing buffer (20 mM HEPES, 137 mM NaCl, 2.7 mM KCl, 0.9 mM MgCl2, 5.0 mM CaCl2, 5.6 mM D-glucose, 2.5 mM probenecid, pH 7.5), and each well was added with 40 μL of this buffer. The plate was placed in High-Throughput Screening System FDSS 3000 (Hamamatsu Photonics K.K.). Measurement of fluorescence inte.

`CCOC(=O)c1cnc(Nc2ccc(OC(C)C)c(F)c2)n(Cc2ccc(Cl)cc2)c1=O` showed a pIC50 of 7.15.

`CCOC(=O)c1cn(Cc2ccc(Cl)cc2)c(Nc2ccc(OC(C)C)c(F)c2)nc1=O` gave a pIC50 of 6.97.

With `CCOC(=O)Nc1cnc(Nc2ccc(OC(C)C)c(F)c2)n(Cc2ccc(Cl)cc2)c1=O`, the pIC50 was 7.48.
